One compound from paper PMC8805583, “Discovery of Herbacetin as a Novel SGK1 Inhibitor to Alleviate Myocardial Hypertrophy” (Advanced Science, 2021) can be followed below.

The structures appear in SMILES notation.

One data set relates to control mice. Briefly: HBT in control mice (safety). The format is in vivo. Here is the method:
Finally, we evaluate the safety and pharmacokinetics of HBT to ensure its druggability. […] Single dose administration of HBT at 40 mg kg^−1 was uptaken rapidly with a maximal plasma concentration of ≈6.73 ng mL^−1 after 10 min (Figure S14A, Supporting Information).
Figure S12. The mice were divided into two groups: Sham, Sham mice treated with HBT (Ctrl + HBT). (A) Schedule of animal treatments. (B) Heart weight/Body weight ratio (HW/BW) was detected in Ctrl and Ctrl + HBT group. (C-D) Echocardiography assessments were performed in the two groups. n=10-12. (E) HE in different groups of mice. n=4, Scale bar=50 μm. (F) The phosphorylation level of SGK1 in myocardial tissues in the two groups (Ctrl, Ctrl + HBT), n=4. Data were analyzed using unpaired two-tailed t test and data were expressed as means ± SD, ns: no significant.
(1 picture or pasted object on this page, not shown here)
Figure S13. Serum level of biochemical markers in mice of Ctrl and Ctrl + HBT groups. Data were analyzed using unpaired two-tailed t test and data were expressed as means ± SD, ns: no […]
Figure S14. Plasma concentration (A) and in vivo distribution (B) of HBT after single oral administration with dosage of 40mg/kg rat weight (n=5-6). The quantitation of HBT was performed by LC-MS/MS analysis. […]

In a further data set the test system is rat cardiomyocytes. The data set is described as follows: ROS (DCFH-DA) and Ca2+ (Fluo-4 AM) detection in PE-stimulated cardiomyocytes. Type of data set: cell-based. The source says:
Elevated cytoplasmic calcium was also observed in PE‐stimulated rat cardiomyocytes after Fluo‐4 AM staining. […] Since the channel subunit Orai1 and stromal interaction molecule 1 (STIM1) are known to participate in the orchestration of Ca^2+ entry into cells and are regulated by multiple kinases including SGK1,^[ [33] ^] we examined if HBT regulates their activities. […] Orai1 may be regulated by Nedd4‐like E3 ubiquitin protein ligase (Nedd4l) mediated degradation or the transcription factor nuclear factor‐κB (NF‐κB) dependent transcription, so we detected the effects of HBT on SGK1 downstream proteins. […] Therefore, HBT may also attenuate cardiomyocyte hypertrophy by reducing cytoplasmic calcium level.
Fluo-4 AM were obtained from Beyotime. SGK1 antibody and GAPDH antibody were obtained from Beyotime. FoxO1, Phospho-FoxO1 (Ser256), p44/42 MAPK (Erk1/2), […]
p65, Phospho-GSK-3β (Ser9), GSK-3β, Phospho-NDRG1 (Thr346), NDRG1, Phospho-NEDD4L (Ser342), NEDD4L, HO-1, Nrf2 and MnSOD antibody were obtained from Cell Signaling. Phospho-SGK1(S422) antibody was obtained from Affinity. Orai1, STIM1, ACTA1 and FLAG antibody were obtained from Proteintech. BNP antibody was obtained from Abcam. ANP antibody was obtained from Santa Cruz Biotechnology. Myosin antibody was obtained from Sigma-Aldrich. Reference compounds were obtained from Shanghai Yuanye Biotechnology. Lipofectamine 2000 transfection reagent was purchased from Invitrogen. Protein A/G agarose was purchased from Beaver Biotechnology.
Phenylephrine (PE) was obtained from Aladdin. Deionized water was prepared with an Elga PURELAB flex system (ELGA LabWater, UK). […]
Micro® Confocal High-Content Imaging System (Molecular Devices). […]
BSA for 1 h, the cells were incubated overnight at 4 °C with rabbit anti-FoxO1 antibody and then with goat anti-rabbit AlexaFluor 488–conjugated antibody for 1 h at room temperature.
Nuclei were stained with Hoechst. Images were acquired using a high-resolution laser confocal microscope (Leica) using an oil immersion A-Plan ×63 objective.
3. ROS and Ca2+ Detection
ROS and Ca2+ levels were detected using DCFH-DA and Fluo-4 AM reagent (Beyotime) respectively according to the manufacturer’s instructions. After incubated for 48 hours, the supernatant was removed and cells were washed with PBS for three times. 100 μL DCFH-DA […]
or Fluo-4 AM working solution was added to each well and incubated at 37℃ for 20 minutes.
Then the cells were washed with PBS for 3 times and images were acquired using an ImageXpress Micro® Confocal High-Content Imaging System (Molecular Devices). The mean fluorescence intensity of cells positive for DCFH-DA or Fluo-4 AM staining was […]
4. Histology and Immunohistochemistry (IHC) […]
(Sigma) according to the manufacturer’s protocol. […]

Regarding `O=c1c(O)c(-c2ccc(O)cc2)oc2c(O)c(O)cc(O)c12` [HBT, herbacetin], the “heart weight, cardiac function, cardiac histopathology” value in the data set on control mice (control mice) is given as “no adverse effect”. Further, in the data set on control mice (control versus HBT-treated mice), the “serum level of regular biomarkers (ALT, AST, TCHO)” value was “no significant difference”. Besides, in the data set with rat cardiomyocytes (PE stimulation, cotreatment), the “cytoplasmic calcium accumulation, Fluo-4 AM staining” value is reported as “effectively blocked” and the “free radicals (ROS), DCFH-DA staining” value is given as “greatly inhibited”. In addition, in the data set on rat cardiomyocytes (PE, western blot), the MnSOD expression result is given as “restored” and the “phosphorylation level of Erk” value was “downregulated”.
